From patent US7781438B2, “Indolylmaleimide derivatives” (Novartis AG, priority 2005, dated 2010) come the findings set out here.

In test [1] the target is T1, Human recombinant PKCβ1 (Homo sapiens, UniProt P05771).
T1 construct: purchased Oxford Biomedical Research
Briefly: Protein Kinase Cβ1 assay. The format is biochemical. To be noted: for IC50: human recombinant PKCβ1, single compounds. How it is done: (§1) The compounds of the invention are tested for their activity on different PKC isoforms according to the following method. Assay is performed in a white with clear bottom 384-well microtiterplate with non-binding surface. The reaction mixture (25 μl) contains 1.5 μM of a tridecapeptide acceptor substrate that mimics the pseudo substrate sequence of PKC a with the Ala→Ser replacement, 10 μM ^33P-ATP, 10 mM Mg(NO3)2, 0.2 mM CaCl2, PKC at a protein concentration varying from 25 to 400 ng/ml (depending on the isotype used), lipid vesicles (containing 30 mol % phosphatidylserine, 5 mol % DAG and 65 mol % phosphatidylcholine) at a final lipid concentration of 0.5 mM, in 20 mM Tris-HCl buffer pH 7.4+0.1% BSA. Incubation is performed for 60 min at room temperature. Reaction is stopped by adding […] of stop mix (100 mM EDTA, 200 μM ATP, 0.1% Triton X-100, 0.375 mg/well streptavidin-coated SPA beads in phosphate buffered saline w/o Ca, Mg. After 10 min incubation at room temperature, the suspension is spun down for 10 min at 300 g. Incorporated radioactivity is measured in a Trilux counter for 1 min. IC50 measurement is performed on a routine basis by incubating a serial dilution of inhibitor at concentrations ranging between 1-1000 μM. IC50 values are calculated from the graph by curve fitting with XL Fit® software.
Human recombinant PKCβ1 was obtained from Oxford Biomedical Research and is used under the assay conditions as described under Section A.1 above.

For test [2], the target named is T2, Human recombinant PKCη (Homo sapiens, UniProt P24723).
T2 construct: purchased PanVera
T2 sequence (P24723 whole entry): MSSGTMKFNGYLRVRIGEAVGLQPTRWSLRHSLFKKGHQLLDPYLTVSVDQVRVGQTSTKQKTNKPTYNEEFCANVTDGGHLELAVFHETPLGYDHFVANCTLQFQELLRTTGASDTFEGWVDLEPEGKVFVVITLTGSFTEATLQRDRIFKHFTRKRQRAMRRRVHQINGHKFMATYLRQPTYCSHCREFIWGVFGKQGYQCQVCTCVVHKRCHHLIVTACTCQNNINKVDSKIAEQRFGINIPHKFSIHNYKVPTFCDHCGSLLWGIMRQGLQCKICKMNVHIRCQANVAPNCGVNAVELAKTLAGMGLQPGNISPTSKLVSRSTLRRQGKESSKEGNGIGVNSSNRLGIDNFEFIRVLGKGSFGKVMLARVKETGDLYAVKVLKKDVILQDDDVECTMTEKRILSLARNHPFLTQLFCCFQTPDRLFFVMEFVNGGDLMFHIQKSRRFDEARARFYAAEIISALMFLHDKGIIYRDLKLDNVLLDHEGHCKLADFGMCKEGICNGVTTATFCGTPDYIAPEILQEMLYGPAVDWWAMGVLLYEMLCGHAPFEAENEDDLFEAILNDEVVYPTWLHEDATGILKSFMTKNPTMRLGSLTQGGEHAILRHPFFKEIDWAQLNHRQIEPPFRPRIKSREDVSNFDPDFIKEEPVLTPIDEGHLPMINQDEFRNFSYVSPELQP
In words: Protein Kinase Cη assay. It is filed as biochemical. How it is done: as §1, with “software. […]” for “software.”

Test [3] concerns the target T3, Human recombinant PKCα (Homo sapiens, UniProt P17252).
T3 construct: purchased Oxford Biomedical Research
Briefly: Protein Kinase Cα assay. It is filed as biochemical. To be noted: single compounds. How it is done: as §1
Human recombinant PKCα was obtained from Oxford Biomedical Research and is used under the assay conditions as described under Section A.1 above.

Test [4] addresses Human recombinant PKCθ (Homo sapiens, UniProt Q04759). In words: Protein Kinase C θ assay. The format is biochemical. How it is done:
as §1, with “software. […]” for “software.”

The target of test [5] is T4, Human recombinant PKCε (Homo sapiens, UniProt Q02156).
T4 construct: purchased Oxford Biomedical Research
T4 sequence (Q02156 1-737): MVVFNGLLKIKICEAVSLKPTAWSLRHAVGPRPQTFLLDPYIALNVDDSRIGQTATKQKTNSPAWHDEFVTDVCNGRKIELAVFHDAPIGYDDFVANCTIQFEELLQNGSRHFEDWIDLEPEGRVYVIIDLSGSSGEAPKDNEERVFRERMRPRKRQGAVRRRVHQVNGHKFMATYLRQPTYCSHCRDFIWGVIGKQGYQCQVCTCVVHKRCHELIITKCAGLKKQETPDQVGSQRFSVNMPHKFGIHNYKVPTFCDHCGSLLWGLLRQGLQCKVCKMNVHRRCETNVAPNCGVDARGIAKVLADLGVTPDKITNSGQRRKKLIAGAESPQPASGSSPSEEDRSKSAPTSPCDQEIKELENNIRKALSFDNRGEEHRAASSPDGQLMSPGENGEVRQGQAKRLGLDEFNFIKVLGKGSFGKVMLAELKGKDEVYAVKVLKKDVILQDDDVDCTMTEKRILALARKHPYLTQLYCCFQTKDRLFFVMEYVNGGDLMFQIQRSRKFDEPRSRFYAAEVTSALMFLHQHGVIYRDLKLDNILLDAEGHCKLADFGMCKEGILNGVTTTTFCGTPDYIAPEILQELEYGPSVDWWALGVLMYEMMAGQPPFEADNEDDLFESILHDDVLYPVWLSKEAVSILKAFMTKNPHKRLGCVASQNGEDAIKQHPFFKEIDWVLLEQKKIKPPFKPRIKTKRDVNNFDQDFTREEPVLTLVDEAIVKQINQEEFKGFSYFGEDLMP
Briefly: Protein Kinase Cε assay. The format is biochemical. How it is done:
as §1, with “software. […]” for “software.”

The subject of test [6] is spleen cells from CBA and BALB/c mice. In words: Allogeneic Mixed Lymphocyte Reaction (MLR), compared with BM assay. The format is cell-based. How it is done:
The two-way MLR is performed according to standard procedures (J. Immunol. Methods, 1973, 2, 279 and Meo T. et al., Immunological Methods, New York, Academic Press, 1979, 227-39). Briefly, spleen cells from CBA and BALB/c mice (1.6×10^5 cells from each strain per well in flat bottom tissue culture microtiter plates, 3.2×10^5 in total) are incubated in RPMI medium containing 10% FCS, 100 U/ml penicillin, 100 μg/ml streptomycin (Gibco BRL, Basel, Switzerland), 50 μM 2-mercaptoethanol (Fluka, Buchs, Switzerland) and serially diluted compounds. Seven three-fold dilution steps in duplicates per test compound are performed. After four days of incubation 1 μCi ^3H-thymidine is added. Cells are harvested after an additional five-hour incubation period, and incorporated ^3H-thymidine is determined according to standard procedures. […]
The ratios of the IC50 value for PKC β to the IC50 value for PKCα, of the IC50 value for PKC δ to the IC50 value for PKCα, of the IC50 value for PKC δ to the IC50 value for PKCα, of the IC50 value for PKC ε to the IC50 value for PKCα, of the IC50 value for PKC η to the IC50 value for PKCα, of the IC50 value for PKC θ to the IC50 value for PKCα, of the IC50 value as determined by the MLR assay and to the IC50 value as determined by the BM assay, obtained for some compounds of the invention are indicated in table 11.

The target of test [7] is T5, Human recombinant PKCδ (Homo sapiens, UniProt Q05655).
T5 construct: purchased Oxford Biomedical Research
T5 sequence (Q05655 whole entry): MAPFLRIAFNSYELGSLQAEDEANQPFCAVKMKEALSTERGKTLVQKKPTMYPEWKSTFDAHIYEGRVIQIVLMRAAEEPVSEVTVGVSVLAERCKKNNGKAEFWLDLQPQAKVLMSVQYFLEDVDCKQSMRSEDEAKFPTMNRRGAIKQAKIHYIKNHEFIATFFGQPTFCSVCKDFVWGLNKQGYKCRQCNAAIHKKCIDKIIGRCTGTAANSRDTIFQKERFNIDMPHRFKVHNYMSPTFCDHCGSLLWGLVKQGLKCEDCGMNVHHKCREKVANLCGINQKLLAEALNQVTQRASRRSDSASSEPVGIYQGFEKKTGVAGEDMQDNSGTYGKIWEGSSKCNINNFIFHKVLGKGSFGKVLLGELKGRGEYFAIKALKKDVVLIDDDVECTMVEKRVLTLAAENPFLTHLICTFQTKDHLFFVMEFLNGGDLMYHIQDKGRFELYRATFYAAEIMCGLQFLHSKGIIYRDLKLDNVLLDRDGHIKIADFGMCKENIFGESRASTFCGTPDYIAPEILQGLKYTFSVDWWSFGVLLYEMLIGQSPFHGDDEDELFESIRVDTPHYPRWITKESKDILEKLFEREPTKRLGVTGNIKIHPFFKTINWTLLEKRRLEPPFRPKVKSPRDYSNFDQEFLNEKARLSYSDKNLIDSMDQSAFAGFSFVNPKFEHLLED
In words: Protein Kinase Cδ assay. The format is biochemical. How it is done: as §1, with “software. […]” for “software.”

A word on the IC50: it is the concentration that gives 50% inhibition.

T1 sequence (P05771 whole entry): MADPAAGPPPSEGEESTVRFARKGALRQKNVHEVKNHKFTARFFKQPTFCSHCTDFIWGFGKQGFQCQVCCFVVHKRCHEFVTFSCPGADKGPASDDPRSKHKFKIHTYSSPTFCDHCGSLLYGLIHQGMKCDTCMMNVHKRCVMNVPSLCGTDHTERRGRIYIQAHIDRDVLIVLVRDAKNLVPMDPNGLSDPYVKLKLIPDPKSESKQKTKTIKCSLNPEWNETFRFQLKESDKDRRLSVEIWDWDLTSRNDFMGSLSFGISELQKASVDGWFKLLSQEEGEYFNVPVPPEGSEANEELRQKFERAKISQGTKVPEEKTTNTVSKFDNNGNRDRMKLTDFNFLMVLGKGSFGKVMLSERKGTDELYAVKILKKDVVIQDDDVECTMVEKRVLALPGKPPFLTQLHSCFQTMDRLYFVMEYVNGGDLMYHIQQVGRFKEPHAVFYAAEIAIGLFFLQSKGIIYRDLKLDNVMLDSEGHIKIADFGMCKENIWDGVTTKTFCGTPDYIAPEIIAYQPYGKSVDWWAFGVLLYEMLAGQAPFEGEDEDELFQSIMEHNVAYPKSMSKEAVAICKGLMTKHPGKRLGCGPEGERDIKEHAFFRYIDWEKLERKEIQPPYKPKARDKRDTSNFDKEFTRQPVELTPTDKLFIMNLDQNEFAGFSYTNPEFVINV
Sequence of Human recombinant PKCθ (Q04759 whole entry): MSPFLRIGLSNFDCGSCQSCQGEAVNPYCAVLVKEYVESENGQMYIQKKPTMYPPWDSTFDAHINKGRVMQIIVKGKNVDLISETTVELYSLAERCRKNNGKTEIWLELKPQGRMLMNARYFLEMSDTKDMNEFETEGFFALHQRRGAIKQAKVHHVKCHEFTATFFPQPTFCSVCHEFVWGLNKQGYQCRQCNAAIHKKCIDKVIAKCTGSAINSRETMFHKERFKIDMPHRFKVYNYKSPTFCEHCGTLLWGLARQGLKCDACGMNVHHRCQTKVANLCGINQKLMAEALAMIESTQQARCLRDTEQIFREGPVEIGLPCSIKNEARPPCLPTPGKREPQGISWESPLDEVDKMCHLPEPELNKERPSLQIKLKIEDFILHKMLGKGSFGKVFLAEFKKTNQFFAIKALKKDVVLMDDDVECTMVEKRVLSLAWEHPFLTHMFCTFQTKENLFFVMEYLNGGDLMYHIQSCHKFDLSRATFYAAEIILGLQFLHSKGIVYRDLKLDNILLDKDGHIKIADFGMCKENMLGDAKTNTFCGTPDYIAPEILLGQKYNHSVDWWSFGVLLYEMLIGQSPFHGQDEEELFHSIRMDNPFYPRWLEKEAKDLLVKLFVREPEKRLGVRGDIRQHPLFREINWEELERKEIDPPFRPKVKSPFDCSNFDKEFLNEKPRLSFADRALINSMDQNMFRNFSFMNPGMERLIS

`CN(C)Cc1cc2c(C3=C(c4c[nH]c5ccccc45)C(=O)NC3=O)c(Cl)ccc2cn1` [Example 146]: in test [1], the IC50 was found to be 25 nM.

As for `CN(C)Cc1ccc2ccc(Cl)c(C3=C(c4cn5c6c(cccc46)OCCC5)C(=O)NC3=O)c2c1` [Example 20], the “η/α (ratio of the IC50 value for PKC η to the IC50 value for PKCα)” value in test [2] is more than 35.7. Also, the IC50 in test [3] was 28 nM; in test [1], 12.4 nM. In addition, in test [1], the “β/α (ratio of the IC50 value for PKC β to the IC50 value for PKCα)” value is 0.4. Besides, the “θ/α (ratio of the IC50 value for PKC θ to the IC50 value for PKCα)” value in test [4] is reported as 14.2. The “ε/α (ratio of the IC50 value for PKC ε to the IC50 value for PKCα)” value in test [5] is more than 35.7. In addition, the “BM/MLR (ratio of IC50 by the BM assay and IC50 by the MLR assay)” value in test [6] is more than 10. Besides, the “δ/α (ratio of the IC50 value for PKC δ to the IC50 value for PKCα)” value in test [7] came out at 30.6.

For the compound `Cn1cc(C2=C(c3c(Cl)ccc4ccc(CNCCF)cc34)C(=O)NC2=O)c2ccccc21` [Example 1, 3-{2-Chloro-7-[(2-fluoro-ethylamino)-methyl]-naphthalen-1-yl}-4-(1-methyl-1H-indol-3-yl)-pyrrole-2,5-dione], in test [2], the “η/α (ratio of the IC50 value for PKC η to the IC50 value for PKCα)” value is 39.3. For the same compound, the “β/α (ratio of the IC50 value for PKC β to the IC50 value for PKCα)” value in test [1] is on record as 0.5. In test [4], the “θ/α (ratio of the IC50 value for PKC θ to the IC50 value for PKCα)” value is on record as 2.9. The “ε/α (ratio of the IC50 value for PKC ε to the IC50 value for PKCα)” value in test [5] is 19.4. The “BM/MLR (ratio of IC50 by the BM assay and IC50 by the MLR assay)” value in test [6] stood at 41.3. Further, the “δ/α (ratio of the IC50 value for PKC δ to the IC50 value for PKCα)” value in test [7] was found to be 7.1.

For the compound `Cc1cccc2c(C3=C(c4c(Cl)ccc5ncc(CN(C)C)cc45)C(=O)NC3=O)c[nH]c12` [Example 136], in test [1], the IC50 was found to be 51 nM.

As to `CN(C)Cc1ccc2ccc(Cl)c(C3=C(c4cn(C)c5ccccc45)C(=O)NC3=O)c2n1` [Example 163], the IC50 in test [1] is 41 nM.

For `COc1cccc2c(C3=C(c4c(Cl)ccc5ccc(CN(C)C)cc45)C(=O)NC3=O)c[nH]c12` [Example 37], in test [3], the IC50 was 3 nM.

As for `COCCOc1ccc2c(C3=C(c4c(Cl)ccc5ccc(CN(C)C)cc45)C(=O)NC3=O)c[nH]c2c1` [Example 38], in test [3], the IC50 was 9 nM.
